What was measured:
[1] = target: Tyrosine-protein kinase Yes (Homo sapiens) (UniProt P07947); conditions: Compound concentration 1000.0 nM
[2] = target: T1, Tyrosine-protein kinase JAK3 (Homo sapiens) (UniProt P52333); conditions: Compound concentration 1000.0 nM
T1 sequence (whole entry): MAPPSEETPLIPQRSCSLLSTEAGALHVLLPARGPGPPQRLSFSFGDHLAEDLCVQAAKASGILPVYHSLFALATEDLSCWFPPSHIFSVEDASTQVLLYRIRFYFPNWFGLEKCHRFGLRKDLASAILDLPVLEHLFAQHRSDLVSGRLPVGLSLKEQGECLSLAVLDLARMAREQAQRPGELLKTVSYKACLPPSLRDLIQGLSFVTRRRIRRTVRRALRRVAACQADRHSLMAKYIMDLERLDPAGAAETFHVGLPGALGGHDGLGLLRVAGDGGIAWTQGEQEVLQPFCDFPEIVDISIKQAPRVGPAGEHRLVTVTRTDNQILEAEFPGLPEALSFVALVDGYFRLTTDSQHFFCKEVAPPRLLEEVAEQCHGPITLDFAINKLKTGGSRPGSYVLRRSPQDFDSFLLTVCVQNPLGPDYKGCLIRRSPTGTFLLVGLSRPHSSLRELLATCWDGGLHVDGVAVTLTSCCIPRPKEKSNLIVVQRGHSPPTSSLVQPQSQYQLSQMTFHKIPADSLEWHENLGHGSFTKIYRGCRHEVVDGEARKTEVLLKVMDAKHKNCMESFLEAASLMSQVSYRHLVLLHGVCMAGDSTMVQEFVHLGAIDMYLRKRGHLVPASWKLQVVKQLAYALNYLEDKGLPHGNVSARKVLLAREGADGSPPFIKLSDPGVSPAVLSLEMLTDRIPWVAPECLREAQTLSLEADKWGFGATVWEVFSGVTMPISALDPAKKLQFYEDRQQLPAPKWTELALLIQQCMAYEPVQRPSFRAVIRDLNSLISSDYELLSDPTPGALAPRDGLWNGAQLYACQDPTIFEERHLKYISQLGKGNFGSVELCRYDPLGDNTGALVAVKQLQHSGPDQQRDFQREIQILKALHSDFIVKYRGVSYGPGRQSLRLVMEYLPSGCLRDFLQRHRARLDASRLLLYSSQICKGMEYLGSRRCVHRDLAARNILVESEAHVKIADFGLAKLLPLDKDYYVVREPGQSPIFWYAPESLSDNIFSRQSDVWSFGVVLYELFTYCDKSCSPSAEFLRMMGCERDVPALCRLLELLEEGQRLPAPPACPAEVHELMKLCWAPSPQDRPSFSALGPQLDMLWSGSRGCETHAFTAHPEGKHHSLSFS

[3] = target: Cyclin-dependent kinase 2 (Homo sapiens) (UniProt P24941); conditions: Compound concentration 1000.0 nM
[4] = target: Serine/threonine-protein kinase mTOR (Homo sapiens) (UniProt P42345); conditions: Compound concentration 1000.0 nM
[5] = target: Casein kinase I isoform gamma-3 (Homo sapiens) (UniProt Q9Y6M4); conditions: Compound concentration 1000.0 nM
[6] = target: T2, Alpha-1B adrenergic receptor (Homo sapiens) (UniProt P35368); conditions: Compound concentration 10.0 uM
T2 sequence (whole entry): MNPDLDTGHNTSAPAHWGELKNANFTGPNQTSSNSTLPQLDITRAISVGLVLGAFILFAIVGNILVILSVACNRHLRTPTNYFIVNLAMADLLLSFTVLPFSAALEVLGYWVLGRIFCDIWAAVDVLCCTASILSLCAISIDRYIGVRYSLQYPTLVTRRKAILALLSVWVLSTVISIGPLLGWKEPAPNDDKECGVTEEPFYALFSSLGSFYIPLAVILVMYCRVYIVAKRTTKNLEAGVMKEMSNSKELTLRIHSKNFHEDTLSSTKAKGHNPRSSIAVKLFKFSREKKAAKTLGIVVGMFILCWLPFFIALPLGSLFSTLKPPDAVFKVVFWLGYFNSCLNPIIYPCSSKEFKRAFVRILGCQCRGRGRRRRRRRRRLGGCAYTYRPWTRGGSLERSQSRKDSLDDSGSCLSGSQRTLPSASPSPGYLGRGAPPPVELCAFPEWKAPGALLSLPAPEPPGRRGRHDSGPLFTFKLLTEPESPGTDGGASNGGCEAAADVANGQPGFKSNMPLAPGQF

[7] = target: T3, 5-hydroxytryptamine receptor 3A (Homo sapiens) (UniProt P46098); conditions: Compound concentration 10.0 uM
T3 sequence (whole entry): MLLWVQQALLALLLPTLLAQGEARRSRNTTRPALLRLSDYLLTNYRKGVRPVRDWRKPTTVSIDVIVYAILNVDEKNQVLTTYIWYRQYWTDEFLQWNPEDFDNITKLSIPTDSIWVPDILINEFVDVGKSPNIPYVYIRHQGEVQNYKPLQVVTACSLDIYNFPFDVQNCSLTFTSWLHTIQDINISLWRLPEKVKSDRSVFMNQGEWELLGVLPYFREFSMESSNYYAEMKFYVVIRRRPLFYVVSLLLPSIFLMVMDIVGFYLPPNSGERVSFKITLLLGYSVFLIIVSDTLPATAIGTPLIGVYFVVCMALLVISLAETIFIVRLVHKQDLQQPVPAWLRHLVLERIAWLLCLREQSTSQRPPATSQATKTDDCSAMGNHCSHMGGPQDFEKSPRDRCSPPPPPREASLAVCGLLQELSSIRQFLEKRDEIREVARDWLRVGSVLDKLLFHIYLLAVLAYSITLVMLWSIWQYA

[8] = system: Phosphatidylinositol 4,5-bisphosphate 3-kinase catalytic subunit alpha isoform (Homo sapiens), P42336 [E545K]; conditions: Compound concentration 1000.0 nM
[9] = target: Tyrosine-protein kinase Fyn (Homo sapiens) (UniProt P06241); conditions: Compound concentration 1000.0 nM
Sequence of Tyrosine-protein kinase Fyn (Homo sapiens) (P06241 2-537 limits assumed): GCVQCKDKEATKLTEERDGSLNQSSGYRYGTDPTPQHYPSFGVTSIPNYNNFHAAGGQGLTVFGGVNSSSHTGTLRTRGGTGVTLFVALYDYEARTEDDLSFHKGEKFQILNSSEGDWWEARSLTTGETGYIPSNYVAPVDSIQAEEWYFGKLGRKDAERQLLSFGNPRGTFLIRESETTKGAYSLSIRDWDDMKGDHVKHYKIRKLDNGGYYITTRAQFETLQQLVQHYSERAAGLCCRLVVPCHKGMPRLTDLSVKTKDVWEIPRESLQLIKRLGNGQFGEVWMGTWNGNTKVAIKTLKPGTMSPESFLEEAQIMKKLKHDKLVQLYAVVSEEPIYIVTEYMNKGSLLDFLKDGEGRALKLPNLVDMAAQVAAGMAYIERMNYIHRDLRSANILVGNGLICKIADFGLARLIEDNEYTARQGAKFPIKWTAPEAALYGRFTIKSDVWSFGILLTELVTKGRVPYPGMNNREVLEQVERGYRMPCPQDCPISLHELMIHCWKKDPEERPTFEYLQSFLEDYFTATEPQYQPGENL

[10] = system: Tyrosine-protein kinase ABL1 (Homo sapiens), P00519 [F317I]; conditions: Compound concentration 1000.0 nM
Sequence of Tyrosine-protein kinase ABL1 (Homo sapiens), P00519 [F317I] (P00519 whole entry F317I): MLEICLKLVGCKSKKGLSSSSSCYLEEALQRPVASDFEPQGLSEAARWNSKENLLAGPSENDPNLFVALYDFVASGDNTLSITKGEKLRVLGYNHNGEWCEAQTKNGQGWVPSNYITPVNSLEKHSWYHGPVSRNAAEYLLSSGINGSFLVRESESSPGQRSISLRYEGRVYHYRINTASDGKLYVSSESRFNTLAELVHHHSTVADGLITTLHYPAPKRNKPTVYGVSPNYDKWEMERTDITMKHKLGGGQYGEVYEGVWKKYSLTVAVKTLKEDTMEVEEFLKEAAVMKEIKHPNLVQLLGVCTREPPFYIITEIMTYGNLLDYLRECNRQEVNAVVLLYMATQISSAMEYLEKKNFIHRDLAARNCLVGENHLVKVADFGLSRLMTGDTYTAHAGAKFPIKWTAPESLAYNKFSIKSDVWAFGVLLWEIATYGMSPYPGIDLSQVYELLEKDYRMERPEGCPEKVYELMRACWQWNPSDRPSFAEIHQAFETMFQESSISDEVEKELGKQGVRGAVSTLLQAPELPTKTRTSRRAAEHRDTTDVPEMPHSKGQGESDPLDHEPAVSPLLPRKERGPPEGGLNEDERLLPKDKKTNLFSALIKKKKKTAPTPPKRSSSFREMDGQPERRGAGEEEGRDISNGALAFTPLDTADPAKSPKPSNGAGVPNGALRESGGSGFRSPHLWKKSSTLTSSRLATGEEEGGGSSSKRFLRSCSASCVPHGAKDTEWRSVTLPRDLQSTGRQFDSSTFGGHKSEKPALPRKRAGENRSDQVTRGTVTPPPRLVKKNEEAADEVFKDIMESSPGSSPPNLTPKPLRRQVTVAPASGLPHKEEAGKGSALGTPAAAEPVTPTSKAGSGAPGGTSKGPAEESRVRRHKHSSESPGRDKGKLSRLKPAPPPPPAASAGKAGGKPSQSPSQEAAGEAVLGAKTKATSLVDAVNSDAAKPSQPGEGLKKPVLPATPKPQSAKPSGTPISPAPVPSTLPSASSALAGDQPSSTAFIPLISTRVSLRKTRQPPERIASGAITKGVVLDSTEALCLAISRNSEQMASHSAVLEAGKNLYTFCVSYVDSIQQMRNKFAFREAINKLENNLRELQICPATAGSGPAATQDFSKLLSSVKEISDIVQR

[11] = target: Serine/threonine-protein kinase WNK1 (Homo sapiens) (UniProt Q9H4A3); conditions: Compound concentration 1000.0 nM
Sequence of Serine/threonine-protein kinase WNK1 (Homo sapiens) (Q9H4A3 whole entry, looked up): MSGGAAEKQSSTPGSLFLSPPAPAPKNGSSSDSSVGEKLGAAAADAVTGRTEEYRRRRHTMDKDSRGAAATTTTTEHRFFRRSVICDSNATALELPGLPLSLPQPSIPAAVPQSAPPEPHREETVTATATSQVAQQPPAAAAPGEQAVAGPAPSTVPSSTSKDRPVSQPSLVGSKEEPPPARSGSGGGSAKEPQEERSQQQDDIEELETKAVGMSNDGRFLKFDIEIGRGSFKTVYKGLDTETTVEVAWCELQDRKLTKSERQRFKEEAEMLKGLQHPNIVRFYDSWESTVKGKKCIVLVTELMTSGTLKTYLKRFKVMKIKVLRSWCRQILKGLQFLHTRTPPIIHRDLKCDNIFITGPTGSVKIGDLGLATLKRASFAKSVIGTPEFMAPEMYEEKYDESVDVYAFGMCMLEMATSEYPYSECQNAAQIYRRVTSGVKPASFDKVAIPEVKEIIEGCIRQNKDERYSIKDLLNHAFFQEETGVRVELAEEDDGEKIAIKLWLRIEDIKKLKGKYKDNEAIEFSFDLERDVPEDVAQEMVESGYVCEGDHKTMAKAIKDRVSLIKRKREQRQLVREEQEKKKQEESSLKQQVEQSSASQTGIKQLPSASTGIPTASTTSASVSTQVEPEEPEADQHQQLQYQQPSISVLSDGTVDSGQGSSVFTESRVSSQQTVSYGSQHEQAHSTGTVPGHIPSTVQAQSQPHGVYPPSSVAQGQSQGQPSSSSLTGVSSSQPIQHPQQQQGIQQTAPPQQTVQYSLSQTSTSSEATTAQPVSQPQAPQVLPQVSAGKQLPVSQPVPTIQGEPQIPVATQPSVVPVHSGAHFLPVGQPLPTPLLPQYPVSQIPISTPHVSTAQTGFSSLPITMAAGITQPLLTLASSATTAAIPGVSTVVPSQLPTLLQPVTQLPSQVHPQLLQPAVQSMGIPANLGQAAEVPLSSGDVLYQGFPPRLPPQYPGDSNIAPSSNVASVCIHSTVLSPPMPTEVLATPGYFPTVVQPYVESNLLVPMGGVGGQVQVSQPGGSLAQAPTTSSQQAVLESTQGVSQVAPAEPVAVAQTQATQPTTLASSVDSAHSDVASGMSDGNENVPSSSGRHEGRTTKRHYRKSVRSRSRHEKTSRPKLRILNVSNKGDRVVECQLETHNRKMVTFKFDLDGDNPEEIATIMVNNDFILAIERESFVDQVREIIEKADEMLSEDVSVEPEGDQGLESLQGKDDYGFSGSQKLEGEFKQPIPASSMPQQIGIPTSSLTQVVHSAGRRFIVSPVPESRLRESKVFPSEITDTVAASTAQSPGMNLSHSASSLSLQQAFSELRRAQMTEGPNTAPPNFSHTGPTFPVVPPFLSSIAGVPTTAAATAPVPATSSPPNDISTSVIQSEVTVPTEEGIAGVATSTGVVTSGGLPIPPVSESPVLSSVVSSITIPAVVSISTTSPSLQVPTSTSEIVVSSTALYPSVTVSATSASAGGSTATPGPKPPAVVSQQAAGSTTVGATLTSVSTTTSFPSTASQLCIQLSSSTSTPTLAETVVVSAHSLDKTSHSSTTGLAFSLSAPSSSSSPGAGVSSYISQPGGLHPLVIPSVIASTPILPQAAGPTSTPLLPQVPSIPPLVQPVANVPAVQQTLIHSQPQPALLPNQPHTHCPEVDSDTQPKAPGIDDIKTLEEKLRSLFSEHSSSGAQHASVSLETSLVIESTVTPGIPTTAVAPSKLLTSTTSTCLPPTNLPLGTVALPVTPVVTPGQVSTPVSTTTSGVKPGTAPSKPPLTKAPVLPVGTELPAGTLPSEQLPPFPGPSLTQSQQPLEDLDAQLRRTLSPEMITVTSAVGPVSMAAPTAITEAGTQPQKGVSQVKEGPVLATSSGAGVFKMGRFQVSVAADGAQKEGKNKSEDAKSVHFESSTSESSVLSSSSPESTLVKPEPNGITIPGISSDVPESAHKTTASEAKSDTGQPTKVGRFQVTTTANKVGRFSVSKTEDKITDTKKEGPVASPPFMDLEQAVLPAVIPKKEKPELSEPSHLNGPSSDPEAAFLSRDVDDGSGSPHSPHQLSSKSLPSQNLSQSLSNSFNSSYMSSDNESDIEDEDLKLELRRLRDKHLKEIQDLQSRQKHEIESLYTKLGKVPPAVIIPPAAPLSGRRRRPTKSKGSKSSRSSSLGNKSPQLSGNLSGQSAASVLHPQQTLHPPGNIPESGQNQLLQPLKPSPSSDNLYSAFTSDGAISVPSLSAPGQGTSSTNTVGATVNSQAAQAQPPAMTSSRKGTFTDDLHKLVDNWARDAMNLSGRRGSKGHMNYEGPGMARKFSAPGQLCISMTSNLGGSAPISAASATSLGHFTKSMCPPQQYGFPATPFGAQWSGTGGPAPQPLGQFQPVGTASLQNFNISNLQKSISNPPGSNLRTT

[12] = target: Serine/threonine-protein kinase PAK 2 (Homo sapiens) (UniProt Q13177); conditions: Compound concentration 1000.0 nM
[13] = target: Death-associated protein kinase 2 (Homo sapiens) (UniProt Q9UIK4); conditions: Compound concentration 1000.0 nM
Sequence of Death-associated protein kinase 2 (Homo sapiens) (Q9UIK4 whole entry, looked up): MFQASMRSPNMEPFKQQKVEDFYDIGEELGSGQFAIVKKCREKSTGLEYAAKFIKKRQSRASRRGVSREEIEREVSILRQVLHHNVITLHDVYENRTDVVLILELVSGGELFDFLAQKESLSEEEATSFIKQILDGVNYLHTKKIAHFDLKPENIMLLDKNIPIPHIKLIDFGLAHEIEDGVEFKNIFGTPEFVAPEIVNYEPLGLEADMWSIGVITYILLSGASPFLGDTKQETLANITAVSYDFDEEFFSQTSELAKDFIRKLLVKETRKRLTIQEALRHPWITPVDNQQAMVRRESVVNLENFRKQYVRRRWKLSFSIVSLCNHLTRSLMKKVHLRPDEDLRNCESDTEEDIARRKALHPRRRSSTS

[14] = target: Non-receptor tyrosine-protein kinase TYK2 (Homo sapiens) (UniProt P29597); conditions: Compound concentration 1000.0 nM
[15] = target: Serine/threonine-protein kinase 36 (Homo sapiens) (UniProt Q9NRP7); conditions: Compound concentration 1000.0 nM
[16] = system: Epidermal growth factor receptor (Homo sapiens), P00533 [T790M]; conditions: Compound concentration 1000.0 nM

Sequence of Tyrosine-protein kinase Yes (Homo sapiens) (P07947 2-543 limits assumed): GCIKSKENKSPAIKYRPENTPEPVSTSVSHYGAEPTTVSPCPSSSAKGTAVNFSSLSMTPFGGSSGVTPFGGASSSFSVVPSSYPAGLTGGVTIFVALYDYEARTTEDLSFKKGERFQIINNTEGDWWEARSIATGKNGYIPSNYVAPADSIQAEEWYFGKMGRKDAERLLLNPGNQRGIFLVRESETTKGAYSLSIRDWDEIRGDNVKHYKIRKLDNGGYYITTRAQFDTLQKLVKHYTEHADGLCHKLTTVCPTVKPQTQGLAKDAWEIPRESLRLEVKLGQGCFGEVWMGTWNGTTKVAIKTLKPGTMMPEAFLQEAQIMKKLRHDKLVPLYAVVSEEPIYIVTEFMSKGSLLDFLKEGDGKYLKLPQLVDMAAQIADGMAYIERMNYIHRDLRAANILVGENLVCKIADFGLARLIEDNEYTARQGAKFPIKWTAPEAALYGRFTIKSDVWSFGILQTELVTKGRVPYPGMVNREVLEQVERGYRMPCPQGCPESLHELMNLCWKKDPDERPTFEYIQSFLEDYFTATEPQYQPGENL

CN(C)C(=O)Cn1cc(-c2nc(C3(c4ccc(-c5cnc(N)nc5)cc4)CC3)no2)cn1 [BI 0153]
inactive: residual activity [1] 87% | residual activity [2] 80% | residual activity [3] 100% | residual activity [4] 91% | residual activity [5] 100% | inhibition [6] 5.11% | inhibition [7] -8.52% | residual activity [8] 85% | residual activity [9] 100% | residual activity [10] 76% | residual activity [11] 97% | residual activity [12] 100% | residual activity [13] 86% | residual activity [14] 100% | residual activity [15] 75% | residual activity [16] 80%

CN(C)C(=O)Cn1cc(-c2nc([C@@](C)(c3ccc(-c4cnc(N)nc4)cc3)C3CC3)no2)cn1 [BI 665915]
inactive: residual activity [1] 94% | residual activity [2] 95% | residual activity [3] 96% | residual activity [4] 100% | residual activity [5] 95% | inhibition [6] 2.84% | inhibition [7] -2.76% | residual activity [8] 81% | residual activity [9] 86% | residual activity [10] 96% | residual activity [11] 94% | residual activity [12] 90% | residual activity [13] 100% | residual activity [14] 75% | residual activity [15] 79% | residual activity [16] 100%

— ChEMBL document CHEMBL4507276 (2021)
